Earlier results as cited in US20030104981A1 (priority 1995, published 2003).

Tests used:
[1] = poster presentation, 1992; cited from earlier work
LB and IM-9 = details: cited from earlier work
LB lymphoma cell = details: cited from earlier work
[2] = assumed; cited from earlier work
IDE = IDE (Homo sapiens, UniProt P14735); details: cited from earlier work

For “B10 Asp insulin: B10 His replaced by Asp in native insulin”, the mitogenic effect [1] is listed as “significantly increased mitogenic effect”.

For “A8 His B10 Glu B27 His (code name H2) insulin [Radoyka H2]”, the “binding to LB and IM-9” value (LB and IM-9) is given as “bound essentially irreversibly” and the “mitogenic potency (literature)” value (LB lymphoma cell) is given as “most potent mitogen”.

For “des-(B26-B30)-[Glu-B^10; Tyr-B^25—NH2] insulin analogue”, the “activity, times more active than native insulin” value [2] is listed as “at least 20 times”.

For “rat insulin analogue at B16 Tyr→Asp replacement: engineered rat insulin analogue at B16 Tyr→Asp replacement (group in Geneva)”, the “susceptibility to cleavage by IDE” value (IDE) is listed as “unchanged susceptibility to cleavage by IDE”.
